From patent publication US10584303B2, “Stabilization of isothiazolones in aqueous compositions” (DDP Specialty Electronic Materials US, Inc., priority 2014, dated 2020)
Where two headings read alike, the source gives them in different places.

How the values were obtained:
[1] = 168 h
Method: (§1) The MWF samples dosed with biocide were analyzed for active level by high pressure liquid chromatography (HPLC) at time 0. The samples were then vortexed and split into a sample that was aged at room temperature and a sample that was aged at 40° C. Each week an aliquot of the aged samples was evaluated by HPLC for the level of active remaining. Samples where no active was found for two consecutive weeks were no longer analyzed.

[2] = Stability of MIT: 25% amine and 10 ppm MIT (HPLC); details: extremely high ratios of amine:isothiazolone (25% amine, 10 ppm MIT); room temperature and 40° C.
Method: as §1

| stability of MIT compared with other amines [2] | Compound | remaining active ingredient MIT (336 h) | remaining active ingredient MIT [1] | remaining active ingredient MIT (504 h) |
| --- | --- | --- | --- | --- |
| – | NCCO [Amine F, 2-aminoethanol, reference compound] | 108 wt % | 0 wt % | – |
| much better stability | CCC(O)CN(CCO)CCO (stereo not drawn) [Amine A, 1-[bis(hydroxylethyl)amino]-2-butanol] | – | – | – |
| much better stability | CCC(O)CN(CCO)CC(O)CC (stereo not drawn) [Amine D, N,N-bis(2-hydroxybutyl)-2-amino ethanol] | – | – | – |
| – | CC(O)CN(CC(C)O)CC(C)O (stereo not drawn) [Amine G, triisopropanol amine] | 110 wt % | – | 108 wt % |
